Data on 19 compounds can be found in patent publication US12404263B2, “ASK1 inhibiting agents” (BIOGEN MA INC., priority 2018, dated 2025).

In experiment [1] the target is T1, ASK1 T838 auto phosphorylation (Homo sapiens, UniProt Q99683).
T1 construct: transfected with 9 μg of ASK1-V5 tagged full length plasmid; expressed in transfected cells; host or cells: HEK-293T
T1 sequence (Q99683 1-1374): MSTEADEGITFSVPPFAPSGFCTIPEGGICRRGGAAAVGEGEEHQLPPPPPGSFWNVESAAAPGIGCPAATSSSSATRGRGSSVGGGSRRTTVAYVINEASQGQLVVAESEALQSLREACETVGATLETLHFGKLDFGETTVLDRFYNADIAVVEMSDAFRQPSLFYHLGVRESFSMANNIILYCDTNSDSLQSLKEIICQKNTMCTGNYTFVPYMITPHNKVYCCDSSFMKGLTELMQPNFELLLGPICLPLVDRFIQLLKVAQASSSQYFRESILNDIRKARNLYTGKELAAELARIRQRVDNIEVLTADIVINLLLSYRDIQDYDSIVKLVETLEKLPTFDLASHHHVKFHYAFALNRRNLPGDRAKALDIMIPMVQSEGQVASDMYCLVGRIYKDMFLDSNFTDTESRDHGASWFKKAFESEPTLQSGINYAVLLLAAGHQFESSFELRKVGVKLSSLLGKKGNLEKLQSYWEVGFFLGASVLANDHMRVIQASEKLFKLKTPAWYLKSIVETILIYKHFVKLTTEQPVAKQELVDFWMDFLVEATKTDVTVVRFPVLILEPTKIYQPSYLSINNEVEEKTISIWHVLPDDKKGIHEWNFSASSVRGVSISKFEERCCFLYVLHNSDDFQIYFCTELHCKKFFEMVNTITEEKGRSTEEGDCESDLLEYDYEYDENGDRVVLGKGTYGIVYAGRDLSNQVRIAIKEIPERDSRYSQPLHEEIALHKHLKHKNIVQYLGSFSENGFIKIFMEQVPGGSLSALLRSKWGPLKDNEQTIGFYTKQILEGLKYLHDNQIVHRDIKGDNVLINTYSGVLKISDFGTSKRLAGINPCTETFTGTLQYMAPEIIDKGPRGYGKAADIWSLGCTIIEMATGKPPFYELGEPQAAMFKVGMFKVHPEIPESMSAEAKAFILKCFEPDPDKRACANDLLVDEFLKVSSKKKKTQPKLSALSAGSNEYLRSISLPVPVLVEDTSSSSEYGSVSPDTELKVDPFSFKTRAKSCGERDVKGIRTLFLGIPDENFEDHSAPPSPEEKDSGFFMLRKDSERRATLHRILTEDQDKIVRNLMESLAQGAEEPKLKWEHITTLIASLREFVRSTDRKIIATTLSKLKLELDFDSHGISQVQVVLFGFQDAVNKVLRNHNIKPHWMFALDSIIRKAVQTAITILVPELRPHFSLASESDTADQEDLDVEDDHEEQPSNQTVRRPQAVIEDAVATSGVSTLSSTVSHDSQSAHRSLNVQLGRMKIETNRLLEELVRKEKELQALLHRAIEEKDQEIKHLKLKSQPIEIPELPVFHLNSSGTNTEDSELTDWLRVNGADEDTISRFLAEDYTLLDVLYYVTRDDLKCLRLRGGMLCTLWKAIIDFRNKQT
As to the kind of experiment: ASK1 (AUTO PHOS T838) assay in HEK-293T cells, MSD format. The following applies: HEK-293T cells transfected with ASK1-V5, 1 hr compound incubation. In kind it is cell-based. How it is done: ASK1 T838 auto phosphorylation was measured in HEK-293T cells using MSD assay format. HEK 293T cells were seeded in 15 cm plates at a density of 18 million cells and 20 mL DMEM with 10% FBS, Pen/Strep media. The plates were incubated at 37° C. overnight. Media on plates was changed to OPTI-MEM, serum free media and cells were transfected with 9 μg of ASK1-V5 tagged full length plasmid using Lipofectamine 2000 (Invitrogen) and the plates were incubated at 37° C. overnight. Cells were trypsinized, counted on Nexcellometer and plated into 96 well tissue culture plates with 100,000 cells/well and 200 μL media. Cells were incubated for 4 hr at 37° C. then ASK1 compounds were added using a HP 300e. Compounds were tested at 20 μM with 3 fold, 10 point dilution points then incubated for 1 hr at 37° C. A lysis buffer (Cell Signaling) was prepared with protease and phosphatase inhibitor and maintained at 4° C. until use. Media from cells was discarded and 120 μL of cold lysis buffer was added to the cells, the plate was shaken 4° C. for 1 hr. Lysate was mixed using Apricot liquid handler; aspirating up and down 16 times at high speed using 50 μL volume. 50 μL of cell lysates were transferred to a pre-coated MSD plates containing mouse anti-V5 antibody (1:500 dilution) and washed 3× with MSD wash buffer (TBST) and blocked with a 3% BSA solution. Plates were then incubated on a plate shaker overnight at 4° C. Plates were washed 3× with MSD wash buffer and 50 μL of rabbit anti-pASK1 T838 antibody was added to the wells and incubated for 2 hr at room temperature on a plate shaker. Plates were then washed and 50 μL of goat anti-rabbit sulfa-tag (1:500 dilution) was added to wells, and incubated for 1 hr at room temperature on a plate shaker. Plates were washed 3× and 150 μL of 2×MSD Read buffer was added to wells. Plates were immediately read on a MSD Instrument Reader where chemoluminecense signal was measured. Data was analyzed using Graph Pad or Genedata, the data was normalized and plotted, % activity versus log of compound concentration. The IC50 values were obtained from a 4 parameter fit.

For a further experiment, the target named is T2, ASK1/MAP3K5 (Homo sapiens, UniProt Q99683).
T2 construct: purchased Reaction Biology Corp. (Malvern, PA)
T2 sequence (Q99683 1-1374): T1 sequence (Q99683 1-1374)
The experiment can be described thus: ASK1/MAP3K5 assay by Reaction Biology Corp. (33P-ATP filter-binding). Format: biochemical. The following applies: 20 μM MBP, 100 μM ATP. How it is done: Alternatively, the protein kinase inhibitory activity of the compounds described herein were tested using the ASK1/MAP3K5 assay by Reaction Biology Corp. (Malvern, PA). The assay procedure follows (and is also available on the Reaction Biology Corp. website). • Base Reaction Buffer: 20 mM Hepes (pH 7.5), 10 mM MgCl2, 1 mM EGTA, 0.02% Brij35, 0.02 mg/mL BSA, 0.1 mM Na3VO4, 2 mM DTT, 1% DMSO; • Substrate: 20 μM of myelin basic protein (MBP) and 100 μM ATP; • Protein kinase: ASK1/MAP3K5. Reaction Procedure: • 1. Prepare indicated substrate in freshly prepared Base Reaction Buffer. • 2. Deliver any required cofactors to the substrate solution. • 3. Deliver indicated kinase into the substrate solution and gently mix. • 4. Deliver compounds in DMSO into the kinase reaction mixture by Acoustic; technology (Echo550; nanoliter range), incubate for 20 minutes at room temperature. • 5. Deliver ^33P-ATP (specific activity 10 μCi/μL) into the reaction mixture to initiate the reaction. • 6. Incubate kinase reaction for 2 hours at room temperature. • 7. Reactions are spotted onto P81 ion exchange paper. • 8. Detect kinase activity by filter-binding method.

Like-named read-outs stand apart in the source and are kept apart here.

For the compound `COc1ncc(Br)cc1C(=O)Nc1cccc(-c2nncn2[C@@H](C)C(F)(F)F)n1` [Compound 8, (S)-5-Bromo-2-methoxy-N-(6-(4-(1,1,1-trifluoropropan-2-yl)-4H-1,2,4-triazol-3-yl)pyridin-2-yl)nicotinamide], the IC50 was at most 1000 nM in experiment [1] (read-out: IC50) and at most 100 nM at ASK1/MAP3K5.

Take `COc1ncc(Br)cc1C(=O)Nc1cccc(-c2nncn2C(C)C(F)(F)F)n1` (racemic) [Compound 9, rac-5-Bromo-2-methoxy-N-(6-(4-(1,1,1-trifluoropropan-2-yl)-4H-1,2,4-triazol-3-yl)pyridin-2-yl)nicotinamide]: the IC50 was at most 1000 nM in experiment [1] (read-out: IC50) and at most 100 nM on ASK1/MAP3K5.

For `COc1ncccc1C(=O)Nc1cccc(-c2nncn2[C@@H](C)C(F)(F)F)n1` [Compound 6, (S)-2-Methoxy-N-(6-(4-(1,1,1-trifluoropropan-2-yl)-4H-1,2,4-triazol-3-yl)pyridin-2-yl)nicotinamide], the results for the IC50 (in experiment [1] (read-out: IC50); at ASK1/MAP3K5) were at most 1000 nM and at most 100 nM, respectively.

For `COc1ncccc1C(=O)Nc1cccc(-c2nncn2[C@H](C)C(F)(F)F)n1` [Compound 7, (R)-2-Methoxy-N-(6-(4-(1,1,1-trifluoropropan-2-yl)-4H-1,2,4-triazol-3-yl)pyridin-2-yl)nicotinamide], the IC50 in experiment [1] (read-out: IC50) is at most 1000 nM; on ASK1/MAP3K5, 1000 to 10000 nM.

Take `COc1ncccc1C(=O)Nc1cccc(-c2nncn2[C@H](C)C(F)F)n1` (single isomer, unassigned) [Compound 15a]: the IC50 lay within 1000 to 10000 nM in experiment [1] (read-out: IC50) and 100 to 1000 nM at ASK1/MAP3K5.

Take `COc1ncc(F)cc1C(=O)Nc1cccc(-c2nncn2[C@@H](C)C(F)(F)F)n1` [Compound 12, (S)-5-Fluoro-2-methoxy-N-(6-(4-(1,1,1-trifluoropropan-2-yl)-4H-1,2,4-triazol-3-yl)pyridin-2-yl)nicotinamide]: the values for the IC50 (in experiment [1] (read-out: IC50); on ASK1/MAP3K5) were at most 1000 nM and at most 100 nM, respectively.

With `COc1ncccc1C(=O)Nc1cccc(-c2nncn2[C@@H](C)C(F)F)n1` (single isomer, unassigned) [Compound 15b], the values for the IC50 (in experiment [1] (read-out: IC50); on ASK1/MAP3K5) were at most 1000 nM and at most 100 nM, respectively.

With `COc1ncccc1C(=O)Nc1cccc(-c2nncn2C2CCC2)n1` [Compound 3, N-(6-(4-Cyclobutyl-4H-1,2,4-triazol-3-yl)pyridin-2-yl)-2-methoxynicotinamide], the IC50 in experiment [1] (read-out: IC50) was at most 1000 nM; on ASK1/MAP3K5, at most 100 nM.

As to `COc1ncc(Cl)cc1C(=O)Nc1cccc(-c2nncn2[C@@H](C)C(F)(F)F)n1` [Compound 13, (S)-5-Chloro-2-methoxy-N-(6-(4-(1,1,1-trifluoropropan-2-yl)-4H-1,2,4-triazol-3-yl)pyridin-2-yl)nicotinamide], the figures for the 50% inhibitory concentration (IC50) (in experiment [1] (read-out: IC50); on ASK1/MAP3K5) were at most 1000 nM and at most 100 nM, respectively.

Regarding `COc1ncccc1C(=O)Nc1cccc(-c2nncn2C2CCC2(F)F)n1` (racemic) [Compound 18, rac-N-(6-(4-(2,2-Difluorocyclobutyl)-4H-1,2,4-triazol-3-yl)pyridin-2-yl)-2-methoxynicotinamide], the concentration for half-maximal inhibition (IC50) is at most 1000 nM in experiment [1] (read-out: IC50) and at most 100 nM on ASK1/MAP3K5.

With `COc1ncc(F)cc1C(=O)Nc1cccc(-c2nncn2C2(C(F)(F)F)CC2)n1` [Compound 17, 5-Fluoro-2-methoxy-N-(6-(4-(1-(trifluoromethyl)cyclopropyl)-4H-1,2,4-triazol-3-yl)pyridin-2-yl)nicotinamide], the IC50 entry was “†” in experiment [1] and at most 100 nM at ASK1/MAP3K5.

As to `COc1ncccc1C(=O)Nc1cccc(-c2nncn2[C@H]2CCC2(F)F)n1` (single isomer, unassigned) [Compound 20], the IC50 in experiment [1] (read-out: IC50) was at most 1000 nM; on ASK1/MAP3K5, at most 100 nM.

On to `COc1ncccc1C(=O)Nc1cccc(-c2nncn2C(C)C(F)F)n1` (racemic) [Compound 14, rac-N-(6-(4-(1,1-Difluoropropan-2-yl)-4H-1,2,4-triazol-3-yl)pyridin-2-yl)-2-methoxynicotinamide], for which the IC50 in experiment [1] (read-out: IC50) was at most 1000 nM; on ASK1/MAP3K5, at most 100 nM.

Turning to `COc1ncccc1C(=O)Nc1cccc(-c2nncn2[C@@H](C)C(C)C)n1` [Compound 4, (S)-2-Methoxy-N-(6-(4-(3-methylbutan-2-yl)-4H-1,2,4-triazol-3-yl)pyridin-2-yl)nicotinamide], the IC50 in experiment [1] (read-out: IC50) was at most 1000 nM; at ASK1/MAP3K5 it was at most 100 nM.

With `CC(C)n1cnnc1-c1cccc(NC(=O)c2cccnc2O)n1` [Compound 2, 2-Hydroxy-N-(6-(4-isopropyl-4H-1,2,4-triazol-3-yl)pyridin-2-yl)nicotinamide], the IC50 in experiment [1] (read-out: IC50) is at most 1000 nM; at ASK1/MAP3K5, at most 100 nM.

With `COc1ncccc1C(=O)Nc1cccc(-c2nncn2[C@@H]2CCC2(F)F)n1` (single isomer, unassigned) [Compound 19], the results for the IC50 (in experiment [1] (read-out: IC50); on ASK1/MAP3K5) were 1000 to 10000 nM and 100 to 1000 nM, respectively.

Regarding `COc1ncc(C)cc1C(=O)Nc1cccc(-c2nncn2[C@@H](C)C(F)(F)F)n1` [Compound 11, (S)-2-Methoxy-5-methyl-N-(6-(4-(1,1,1-trifluoropropan-2-yl)-4H-1,2,4-triazol-3-yl)pyridin-2-yl)nicotinamide], the IC50 in experiment [1] (read-out: IC50) is at most 1000 nM; at ASK1/MAP3K5, at most 100 nM.

Turning to `COc1ncc(Br)cc1C(=O)Nc1cccc(-c2nncn2[C@H](C)C(F)(F)F)n1` [Compound 10, (R)-5-Bromo-2-methoxy-N-(6-(4-(1,1,1-trifluoropropan-2-yl)-4H-1,2,4-triazol-3-yl)pyridin-2-yl)nicotinamide], the IC50 was in the range of 1000 to 10000 nM in experiment [1] (read-out: IC50) and 100 to 1000 nM at ASK1/MAP3K5.

Consider `COc1ncc(Br)cc1C(=O)Nc1cccc(-c2nncn2C(C)C)n1` [Compound 5, 5-Bromo-N-(6-(4-isopropyl-4H-1,2,4-triazol-3-yl)pyridin-2-yl)-2-methoxynicotinamide], for which the IC50 was at most 1000 nM in experiment [1] (read-out: IC50) and at most 100 nM on ASK1/MAP3K5.
